Assay results: BindingDB's records for doi:10.7270/Q2C53J9J (University of Pittsburgh, 2010)

What follows are compounds tested against T1, Glucose-6-phosphate 1-dehydrogenase (Leuconostoc mesenteroides, UniProt P11411) (assay: Leuconostoc G6PDH inhibition potency, SAR follow-up, counter-screen for TbHK1 inhibitor project, biochemical, analogue series, IC50 (AID 2579)).
T1 sequence (P11411 whole entry): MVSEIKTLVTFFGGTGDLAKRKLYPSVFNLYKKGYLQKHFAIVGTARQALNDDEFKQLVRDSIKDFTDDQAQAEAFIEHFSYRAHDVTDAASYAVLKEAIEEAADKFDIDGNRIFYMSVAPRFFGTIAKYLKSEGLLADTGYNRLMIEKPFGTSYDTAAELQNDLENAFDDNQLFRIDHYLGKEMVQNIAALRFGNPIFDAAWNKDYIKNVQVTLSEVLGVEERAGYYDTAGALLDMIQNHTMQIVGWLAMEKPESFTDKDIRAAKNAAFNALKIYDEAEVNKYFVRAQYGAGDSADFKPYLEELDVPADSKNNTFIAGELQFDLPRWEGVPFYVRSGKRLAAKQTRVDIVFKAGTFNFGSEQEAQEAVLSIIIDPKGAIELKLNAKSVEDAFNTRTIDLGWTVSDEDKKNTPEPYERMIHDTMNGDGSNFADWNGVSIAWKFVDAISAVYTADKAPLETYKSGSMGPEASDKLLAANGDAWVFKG
Cn1sc(=O)c2ccccc21 [KUC103851N] was tested, and the IC50 was greater than 25 µM. O=C(Cn1sc2ccccc2c1=O)Nc1ccc(I)cc1 [N-(4-iodophenyl)-2-(3-oxo-1,2-benzothiazol-2-yl)acetamide] was tested, and the IC50 was greater than 25 µM. Compound O=C(Cn1sc2ccccc2c1=O)Nc1cccc(I)c1 [KUC104222N] has an IC50 greater than 25 µM. Compound COc1ccc(C(=O)Nc2cc(Cl)ccc2[N+](=O)[O-])cc1 [KSC-6-266] has an IC50 greater than 25 µM. For O=C(Nc1cc(Cl)ccc1C(=O)O)c1ccsc1 [KUC105926N], the IC50 was greater than 25 µM. For COc1ccc(C(=O)Nc2cc(Cl)ccc2C#N)cc1 [KSC-6-267], the IC50 was greater than 25 µM. With O=C(Nc1cc(Cl)ccc1C(=O)O)c1cocn1 [KUC105934N] the IC50 was greater than 25 µM. OB1OCc2cc(C(F)(F)F)ccc21 [KSC-6-287] showed an IC50 greater than 25 µM. With O=c1c2ccccc2sn1-c1ccccc1F the IC50 was greater than 25 µM. CN(Cc1ccccc1)C(=O)Cn1sc2ccccc2c1=O [N-benzyl-N-methyl-2-(3-oxo-1,2-benzothiazol-2-yl)acetamide] gave an IC50 greater than 25 µM. In the case of O=C1c2cccc(Br)c2SCN1c1ccccc1 [8-bromanyl-3-phenyl-2H-1,3-benzothiazin-4-one], the IC50 is reported as greater than 25 µM. COC(=O)c1ccc(Cl)cc1NC(=O)c1ccc(OC)cc1 [KUC105792N] gave an IC50 greater than 25 µM. CN(C)S(=O)(=O)c1cccc(-n2sc3ccccc3c2=O)c1 [3-(3-keto-1,2-benzothiazol-2-yl)-N,N-dimethyl-benzenesulfonamide] was tested, and the IC50 was greater than 25 µM. Work on COc1ccc(NC(=O)Cn2sc3ccccc3c2=O)cc1 [KSC-4-269] yielded an IC50 greater than 25 µM. O=C(Nc1cc(Cl)ccc1C(=O)O)c1ccccc1 [2-benzamido-4-chlorobenzoic acid] gave an IC50 greater than 25 µM. Cn1c2ccccc2c(=O)n1-c1ccccc1 [1-methyl-2-phenyl-3-indazolone] was tested, and the IC50 was greater than 25 µM. In the case of O=c1c2cc(F)c(F)cc2sn1-c1ccccc1 [KUC104549N], the IC50 is reported as greater than 25 µM. For COc1ccc2c(c1)CN(c1cc(Cl)ccc1C(=O)O)C2=O [4-chloro-2-(6-methoxy-3-oxo-1H-isoindol-2-yl)benzoic acid], the IC50 was greater than 25 µM. COc1ccc(C(=O)Nc2ccccc2C(=O)O)cc1 [KUC106458N] gave an IC50 greater than 25 µM. CC(C)c1cccc(C(=O)Nc2cc(Cl)ccc2C(=O)O)c1 [KUC106459N] gave an IC50 greater than 25 µM. Work on O=C(Nc1cc(Cl)ccc1C(=O)O)c1ccc2c(c1)OCO2 [KUC106004N] yielded an IC50 greater than 25 µM. With COc1ccc(C(=O)NC(CC(=O)O)c2ccc(Cl)cc2)cc1 (configuration not stated) [3-(4-chlorophenyl)-3-[(4-methoxyphenyl)carbonylamino]propanoic acid] the IC50 was greater than 25 µM. With Cc1cc(=O)n(-c2ccccc2)s1 the IC50 was greater than 25 µM. Cc1ccccc1N1Cc2ccccc2C1=O [KUC103869N] gave an IC50 greater than 25 µM. O=c1c2cc(F)ccc2sn1-c1ccc(Cl)cc1 [2-(4-chlorophenyl)-5-fluoranyl-1,2-benzothiazol-3-one] gave an IC50 greater than 25 µM. Work on COc1ccc(C(=O)Nc2cc(C)ccc2C(=O)O)cc1 [2-[(4-methoxyphenyl)carbonylamino]-4-methyl-benzoic acid] yielded an IC50 greater than 25 µM. COc1ccc(C(=O)Nc2ccc(Cl)cc2C(=O)O)cc1 [KUC105713N] was tested, and the IC50 was greater than 25 µM. With O=C(Cn1sc2ccccc2c1=O)Nc1ccc(F)cc1 [N-(4-fluorophenyl)-2-(3-oxo-1,2-benzothiazol-2-yl)acetamide] the IC50 was greater than 25 µM. With O=C(Cn1sc2ccccc2c1=O)N1CCCCC1 the IC50 was greater than 25 µM. For O=C(Nc1cc(Cl)ccc1C(=O)O)c1ccc2ccccc2c1 [4-chloro-2-[[2-naphthalenyl(oxo)methyl]amino]benzoic acid], the IC50 was greater than 25 µM. In the case of O=C(NCc1ccccc1)n1sc2ccccc2c1=O [N-benzyl-3-oxo-1,2-benzothiazole-2-carboxamide], the IC50 is reported as greater than 25 µM. For O=C(O)c1ccc(Cl)cc1NC(=O)C1CCOCC1 [KUC106462N], the IC50 was greater than 25 µM. Compound N#Cc1ccc(NC(=O)Cn2sc3ccccc3c2=O)cc1 [KUC104552N] has an IC50 greater than 25 µM. Work on CCc1ccc(C(=O)Nc2cc(Br)ccc2C(=O)O)cc1 [4-bromanyl-2-[(4-ethylphenyl)carbonylamino]benzoic acid] yielded an IC50 greater than 25 µM. Compound O=C(Cn1sc2ccccc2c1=O)Nc1ccccc1 [KUC104122N] has an IC50 greater than 25 µM. COc1ccc(C(=O)Nc2cc(Cl)ccc2-c2nnn[nH]2)cc1 [KUC105991N] showed an IC50 greater than 25 µM. Work on COc1ccc(C(=O)O)c(NC(=O)c2ccc(Cl)cc2)c1 yielded an IC50 greater than 25 µM. Compound COc1ccc(C(=O)Nc2cc(Cl)ccc2C(=O)O)cn1 [4-chloranyl-2-[(6-methoxypyridin-3-yl)carbonylamino]benzoic acid] has an IC50 greater than 25 µM. With CC(C(=O)Nc1ccccc1)n1sc2ccccc2c1=O (configuration not stated) [2-(3-keto-1,2-benzothiazol-2-yl)-N-phenyl-propionamide (9)] the IC50 was greater than 25 µM. With COc1ccc(-n2sc3ccccc3c2=O)cc1 [KSC-6-098] the IC50 was greater than 25 µM. With COc1cccc(NC(=O)Cn2sc3ccccc3c2=O)c1 [KUC104220N] the IC50 was greater than 25 µM. With CCOC(=O)c1ccncc1NC(=O)c1ccc(OC)cc1 [3-[[(4-methoxyphenyl)-oxomethyl]amino]-4-pyridinecarboxylic acid ethyl ester] the IC50 was greater than 25 µM. For O=C(Cn1sc2ccccc2c1=O)Nc1cccc(C(F)(F)F)c1 [KUC104221N], the IC50 was greater than 25 µM. Work on O=C(Cn1sc2ccccc2c1=O)Nc1cccc(Br)c1 [N-(3-bromophenyl)-2-(3-oxo-1,2-benzothiazol-2-yl)acetamide] yielded an IC50 greater than 25 µM. Work on COc1ccc(C(=O)Nc2cc(Br)ccc2C(=O)O)cc1 [4-bromo-2-[[(4-methoxyphenyl)-oxomethyl]amino]benzoic acid] yielded an IC50 greater than 25 µM. For COc1ccc(NC(=O)c2ccccc2SCc2ccccc2)cc1 [KUC103881N], the IC50 was greater than 25 µM. With CN(C)c1cccc(NC(=O)Cn2sc3ccccc3c2=O)c1 [KSC-09-148-9] the IC50 was greater than 25 µM. Work on O=c1c2c(Br)cccc2sn1-c1ccccc1 [4-bromanyl-2-phenyl-1,2-benzothiazol-3-one] yielded an IC50 greater than 25 µM. Work on CC(=O)Nc1ccc2sn(-c3ccccc3)c(=O)c2c1 [KSC-6-110] yielded an IC50 greater than 25 µM. O=c1c2ccccc2sn1-c1ccccc1 [2-phenyl-1,2-benzothiazol-3-one] showed an IC50 greater than 25 µM. For CC(C)c1ccc(C(=O)Nc2cc(Cl)ccc2C(=O)O)cc1 [4-chloro-2-[[oxo-(4-propan-2-ylphenyl)methyl]amino]benzoic acid], the IC50 was greater than 25 µM. Work on COc1ccc2c(=O)n(-c3ccccc3)sc2c1 [KUC105410N] yielded an IC50 greater than 25 µM. In the case of O=C(Nc1cc(Cl)ccc1C(=O)O)c1ccncc1 [4-chloro-2-[[oxo(pyridin-4-yl)methyl]amino]benzoic acid], the IC50 is reported as greater than 25 µM. For COc1ccc(C(=O)Nc2cc(C(F)(F)F)ccc2C(=O)O)cc1 [2-[(4-methoxybenzoyl)amino]-4-(trifluoromethyl)benzoic acid], the IC50 was greater than 25 µM. With COc1ccc(C(=O)Nc2ccccc2-c2nn[nH]n2)cc1 [4-methoxy-N-[2-(2H-1,2,3,4-tetrazol-5-yl)phenyl]benzamide] the IC50 was greater than 25 µM. In the case of COc1ccc(C(=O)Nc2cc(Cl)ccc2C(=O)O)cc1OC [4-chloro-2-[(3,4-dimethoxybenzoyl)amino]benzoic acid], the IC50 is reported as greater than 25 µM. With O=C(Nc1ccccc1)c1cc(F)ccc1S the IC50 was greater than 25 µM. O=C(Cn1sc2ccccc2c1=O)Nc1cccc(F)c1 [N-(3-fluorophenyl)-2-(3-oxo-1,2-benzothiazol-2-yl)acetamide] was tested, and the IC50 was greater than 25 µM. N#Cc1ccc(Oc2ccc3c(c2)B(O)OC3)cc1 [KSC-6-289] gave an IC50 greater than 25 µM. With O=C(Nc1cc(Cl)ccc1C(=O)O)c1ccc(OC(F)(F)F)cc1 [KUC105992N] the IC50 was greater than 25 µM. For COc1ccc(C(=O)Nc2cc(Cl)ccc2C(=O)O)cc1 [4-chloranyl-2-[(4-methoxyphenyl)carbonylamino]benzoic acid], the IC50 was greater than 25 µM. In the case of CC(=O)Nc1cc(Cl)ccc1C(=O)O [KUC105931N], the IC50 is reported as greater than 25 µM. Work on O=c1c2cc(Br)ccc2sn1-c1ccccc1 [KSC-6-175] yielded an IC50 greater than 25 µM. With COc1ccc(S(=O)(=O)Nc2cc(Cl)ccc2C(=O)O)cc1 the IC50 was greater than 25 µM. O=C(Nc1cc(Cl)ccc1C(=O)O)c1ccc(Cl)cc1 [4-chloranyl-2-[(4-chlorophenyl)carbonylamino]benzoic acid] gave an IC50 greater than 25 µM. O=C(Cn1sc2ccccc2c1=O)Nc1ccc(C(F)(F)F)cc1 [KUC105341N] gave an IC50 greater than 25 µM. Compound O=C(Nc1cc(Cl)ccc1C(=O)O)c1ccc(-c2cccs2)cc1 [KUC106464N] has an IC50 greater than 25 µM. In the case of O=c1ccsn1-c1ccccc1 [2-Phenyl-isothiazol-3-one], the IC50 is reported as greater than 25 µM. CC(C)Cc1ccc(C(=O)Nc2cc(Cl)ccc2C(=O)O)cc1 [4-chloranyl-2-[[4-(2-methylpropyl)phenyl]carbonylamino]benzoic acid] gave an IC50 greater than 25 µM. O=C(Nc1cc(Cl)ccc1C(=O)O)c1ccc(Cc2ccccc2)cc1 [4-chloranyl-2-[[4-(phenylmethyl)phenyl]carbonylamino]benzoic acid] showed an IC50 greater than 25 µM. For Cc1ccccc1NC(=O)Cn1sc2ccccc2c1=O, the IC50 was greater than 25 µM. COc1ccc(C(=O)Nc2cc(F)cc(F)c2O)cc1 [N-(3,5-difluoro-2-hydroxyphenyl)-4-methoxybenzamide] showed an IC50 greater than 25 µM. Work on O=C1CCN(C(=O)Nc2cc(Cl)ccc2C(=O)O)CC1 [4-chloro-2-[[oxo-(4-oxo-1-piperidinyl)methyl]amino]benzoic acid] yielded an IC50 greater than 25 µM. CCCCCC(=O)Nc1cc(Cl)ccc1C(=O)O [4-chloro-2-(1-oxohexylamino)benzoic acid] gave an IC50 greater than 25 µM. CCCCCCCC(=O)Nc1cc(Cl)ccc1C(=O)O [KUC106002N] showed an IC50 greater than 25 µM. Work on COC(=O)c1cc(Cl)ccc1NC(=O)c1ccc(OC)cc1 [methyl 5-chloranyl-2-[(4-methoxyphenyl)carbonylamino]benzoate] yielded an IC50 greater than 25 µM. O=c1c2ccccc2sn1-c1cccc(Cl)c1 [2-(3-chlorophenyl)-1,2-benzothiazol-3-one] showed an IC50 greater than 25 µM.
